Laboratory results taken from patent US7235585B2 (priority 2002, dated 2007).
Read-outs that look alike come from different tables or passages of the source.

Tests used:
[1] = test system: WiDr cells (a colon carcinoma cell line) engineered for stable expression of β-galactosidase (β-gal); assay: cells; assay type: cell-based; conditions: read-out: IC50 LacZ
[2] = test system: WiDr cells (a colon carcinoma cell line) engineered for stable expression of stCPG2(Q)3; assay: cells; assay type: cell-based; conditions: for IC50: read-out: IC50 stCPG2(Q)3
[3] = buffer; for T1/2 prodrug: pH 7.3
CPG2 = CPG2 (Pseudomonas sp., UniProt P06621); assay type: biochemical, Pseudomonas R16
Sequence of CPG2 (P06621 23-415): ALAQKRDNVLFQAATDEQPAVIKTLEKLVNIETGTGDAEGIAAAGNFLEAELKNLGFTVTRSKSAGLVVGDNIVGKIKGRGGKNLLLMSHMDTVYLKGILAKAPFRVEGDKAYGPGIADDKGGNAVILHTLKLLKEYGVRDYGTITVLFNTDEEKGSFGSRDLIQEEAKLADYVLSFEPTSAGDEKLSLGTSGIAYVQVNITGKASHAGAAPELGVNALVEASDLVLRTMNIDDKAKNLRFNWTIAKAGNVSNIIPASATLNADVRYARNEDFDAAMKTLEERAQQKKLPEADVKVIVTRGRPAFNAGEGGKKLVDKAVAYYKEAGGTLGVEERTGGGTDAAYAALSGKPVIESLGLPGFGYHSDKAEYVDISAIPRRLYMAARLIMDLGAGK

[4] = test system: WiDr cells (a colon carcinoma cell line) engineered for stable expression of β-galactosidase (β-gal); conditions: cited from earlier work
[5] = test system: WiDr cells (a colon carcinoma cell line) engineered for stable expression of stCPG2(Q)3; conditions: cited from earlier work

Structure (SMILES) | IC50 [1] [µM] | Degree of activation (fold) [2] [fold] | differentials in the WiDr cell lines compared with CMDA [2] | IC50 [2] [µM] | T1/2 prodrug/T1/2 drug [3] | T1/2 prodrug [3] [min] | IC50 ([1]; Homo sapiens, WiDr) [µM] | IC50 ([2]; Homo sapiens, WiDr) [µM] | kcat (CPG2) [s⁻¹] | differential in the transfected WiDr cell line [2] [fold] | IC50 [4] [µM] | IC50 [5] [µM]
O=C(O)CCC(NC(=O)Oc1ccc(COC(=O)Nc2ccc(N(CCBr)CCBr)cc2)cc1)C(=O)O (centres unmarked) [CP-11] | 99.7 | 38.3 | better than those of CMDA | 2.6 | 0.4 | 0.9 |  |  |  |  |  | 
CN(C(=O)OCc1ccc(NC(=O)NC(CCC(=O)O)C(=O)O)cc1)c1ccc(N(CCI)CCI)cc1 [Compound P-1, 4-{N-[4′-bis(2″-iodoethyl)amino-phenyl]-N-methyl-carbamoyl-oxymethyl}-phenyl-carbamoyl-L-glutamic acid] |  | 124.0 | better than those of CMDA |  | 6.5 |  | 185 | 1.5 |  |  |  | 
CN(C(=O)OCc1ccc(OC(=O)NC(CCC(=O)O)C(=O)O)cc1)c1ccc(N(CCBr)CCBr)cc1 (centres unmarked) [CP-16] | 27.2 | 7.5 |  | 3.6 | 1.0 | 2.7 |  |  |  |  |  | 
O=C(O)CCC(NC(=O)Nc1ccc(COC(=O)Nc2ccc(N(CCCl)CCCl)cc2)cc1)C(=O)O (centres unmarked) [CP-6] |  |  |  |  |  |  |  |  | 10 to 50 |  |  | 
CS(=O)(=O)OCCN(CCCl)c1ccccc1NC(=O)OCc1ccc(OC(=O)NC(CCC(=O)O)C(=O)O)cc1 (centres unmarked) [CP-14] | 148 | 5.2 |  | 28.5 |  | 10.0 |  |  |  |  |  | 
O=C(O)CCC(NC(=O)Nc1ccc(COC(=O)Nc2ccccc2N(CCBr)CCBr)cc1)C(=O)O (centres unmarked) [CP-3] | 118 | 24.9 |  | 4.7 | 3.5 | 3.0 |  |  |  | 25 |  | 
O=C(O)CCC(NC(=O)Oc1ccc(COC(=O)Nc2ccccc2N(CCCl)CCCl)cc1)C(=O)O (centres unmarked) [CP-12] | 38.1 | 1.4 |  | 28.1 | 11.9 | 146.3 |  |  | 4.27 |  |  | 
O=C(O)CCC(NC(=O)Oc1ccc(COC(=O)Nc2ccc(N(CCCl)CCCl)cc2)cc1)C(=O)O (centres unmarked) [CP-13] |  |  |  |  |  |  |  |  | <10 |  |  | 
O=C(O)CCC(NC(=O)Oc1ccc(COC(=O)Nc2ccccc2N(CCI)CCI)cc1)C(=O)O (centres unmarked) [CP-8] | 73.3 | 3.9 |  | 19 |  | 2.1 |  |  |  |  |  | 
CN(C(=O)OCc1ccc(OC(=O)NC(CCC(=O)O)C(=O)O)cc1)c1ccc(N(CCI)CCI)cc1 (centres unmarked) [CP-15] | 21.5 | 8.3 |  | 2.6 | 7.7 | 4.6 |  |  |  |  |  | 
CN(C(=O)OCc1ccc(OC(=O)NC(CCC(=O)O)C(=O)O)cc1)c1ccc(N(CCCl)CCCl)cc1 (centres unmarked) [CP-17] | 19.6 | 11.5 |  | 1.7 | 20.6 | 173.6 |  |  | 4.32 |  |  | 
CS(=O)(=O)OCCN(CCOS(C)(=O)=O)c1ccccc1NC(=O)OCc1ccc(OC(=O)NC(CCC(=O)O)C(=O)O)cc1 (centres unmarked) [CP-7] | 208 | 5.2 |  | 40 |  | 10.8 |  |  |  |  |  | 
CN(C(=O)OCc1ccc(NC(=O)NC(CCC(=O)O)C(=O)O)cc1)c1ccc(N(CCBr)CCBr)cc1 [Compound P-2, 4-{N-[4′-bis(2″-bromoethyl)amino-phenyl]-N-methyl-carbamoyl-oxymethyl}-phenyl-carbamoyl-L-glutamic acid] |  | 81.4 | better than those of CMDA |  | 1.0 |  | 332 | 4.1 |  |  |  | 
CN(C(=O)OCc1ccc(NC(=O)NC(CCC(=O)O)C(=O)O)cc1)c1ccc(N(CCCl)CCCl)cc1 [Compound P-3, 4-{N-[4′-bis(2″-chloroethyl)amino-phenyl]-N-methyl-carbamoyl-oxymethyl}-phenyl-carbamoyl-L-glutamic acid] |  | 15.9 |  |  | 20.9 |  | 39.7 | 2.5 | 5.50 |  |  | 
CS(=O)(=O)OCCN(CCCl)c1ccc(C(=O)N[C@@H](CCC(=O)O)C(=O)O)cc1 [CMDA, N-{4-[(2-chloroethyl)(2-mesyloxyethyl)amino]benzoyl}-L-glutamic acid] |  | 32.3 |  |  |  |  |  |  |  |  | 3230 | 100
O=C(O)CCC(NC(=O)Nc1ccc(COC(=O)Nc2ccccc2N(CCI)CCI)cc1)C(=O)O (centres unmarked) [CP-1] | 149 | 49.7 | better than those of CMDA | 3 |  | 2.7 |  |  |  | 50 |  | 
O=C(O)CCC(NC(=O)Oc1ccc(COC(=O)Nc2ccc(N(CCI)CCI)cc2)cc1)C(=O)O (centres unmarked) [CP-9] | 53.6 | 42.5 | better than those of CMDA | 1.3 | 2.0 | 0.98 |  |  |  |  |  | 
O=C(O)CCC(NC(=O)Nc1ccc(COC(=O)Nc2ccccc2N(CCCl)CCCl)cc1)C(=O)O (centres unmarked) [CP-5] | 21.1 | 4.7 |  | 4.5 | 13.9 | 107.5 |  |  | 2.92 |  |  | 
O=C(O)CCC(NC(=O)Nc1ccc(COC(=O)Nc2ccc(N(CCBr)CCBr)cc2)cc1)C(=O)O (centres unmarked) [CP-4] | 205 | 66.6 | better than those of CMDA | 3.1 | 0.4 | 0.85 |  |  |  |  |  | 
O=C(O)CCC(NC(=O)Nc1ccc(COC(=O)Nc2ccc(N(CCI)CCI)cc2)cc1)C(=O)O (centres unmarked) [CP-2] | 180 | 101.6 | better than those of CMDA | 1.8 | 1.9 | 0.97 |  |  |  |  |  | 
O=C(O)CCC(NC(=O)Oc1ccc(COC(=O)Nc2ccccc2N(CCBr)CCBr)cc1)C(=O)O (centres unmarked) [CP-10] | 183 | 1.9 |  | 95.2 | 3.5 | 3.47 |  |  |  |  |  | 
